The text below walks through data of patent US7932262B2 (Novartis AG, priority 2006, dated 2011).

One assay concerns the target T1, PDK1 kinase (Homo sapiens, UniProt O15530).
T1 sequence (O15530 1-556): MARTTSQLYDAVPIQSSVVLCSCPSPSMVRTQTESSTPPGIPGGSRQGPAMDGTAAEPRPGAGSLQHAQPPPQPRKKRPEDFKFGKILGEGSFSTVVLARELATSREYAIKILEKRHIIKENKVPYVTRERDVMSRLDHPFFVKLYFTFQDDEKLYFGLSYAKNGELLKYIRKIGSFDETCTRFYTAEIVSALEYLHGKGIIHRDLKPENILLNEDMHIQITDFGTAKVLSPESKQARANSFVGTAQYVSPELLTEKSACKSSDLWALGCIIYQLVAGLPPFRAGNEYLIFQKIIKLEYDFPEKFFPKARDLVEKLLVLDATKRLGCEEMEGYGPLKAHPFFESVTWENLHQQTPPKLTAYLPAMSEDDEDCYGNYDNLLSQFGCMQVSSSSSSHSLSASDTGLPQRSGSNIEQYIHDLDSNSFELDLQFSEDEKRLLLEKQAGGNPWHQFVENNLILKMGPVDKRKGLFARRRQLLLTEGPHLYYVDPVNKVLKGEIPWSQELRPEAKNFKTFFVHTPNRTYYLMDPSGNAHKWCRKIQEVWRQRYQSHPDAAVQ
In words: PDK1 Kinase Alpha Screen Assay. In kind it is biochemical. To be noted: PDK1 Kinase Alpha Screen Assay; read-out: PDK1 IC50. The gist of the method:
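PDK1 phosphorylated 50 nM biotinylated PDK1-4 peptide with 10 uM ATP in Tris pH 7.5, 10 mM MgCl2, 2 mM DTT, 2.5% DMSO for 3-18 hours. After EDTA stop, phosphopeptide was detected by AlphaScreen using phospho-(Ser/Thr) PKA substrate antibody with protein A/streptavidin beads, read after overnight incubation.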

In another assay the test system is PC-3 cells. In words: Cell Proliferation Assay (Cell Titer Glo), PC-3 cell line. It counts as cell-based. To be noted: Homo sapiens, PC-3, Cell Proliferation Assay, PC3; read-out: CPEC50 PC3. The gist of the method: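 PC-3 cells, 1000 cells/well, left to adhere 3-5 h, then exposed for 3 days at 37° C to compounds as 1:3 serial dilutions from 500× DMSO stocks diluted in growth medium. Medium then replaced with fresh medium and viability read by Cell Titer Glo luminescence.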
A general note: ATP-based viability assays read luminescence as a measure of living cells.

Bounds are passed on as bounds.

What is called IC50 is the concentration that gives 50% inhibition. With `Fc1cc(Nc2ncc3cccc(-c4ccc(NCCN5CCCC5)nc4)c3n2)ccc1N1CCOCC1` [Compound 431, N-(3-fluoro-4-morpholinophenyl)-8-(6-(2-(pyrrolidin-1-yl)ethylamino)pyridine-3-yl)quinazolin-2-amine], the IC50 on PDK1 kinase is below 5 µM. The EC50 in the assay on PC-3 cells was below 5 µM.

Consider `CN1CCN(c2ccc(-c3cccc4cnc(Nc5ccc(N6CCOCC6)c(F)c5)nc34)cn2)CC1` [Compound 432, N-(3-fluoro-4-morpholinophenyl)-8-(6-(4-methylpiperazin-1-yl)pyridin-3-yl)quinazolin-2-amine], for which the 50% inhibitory concentration (IC50) on PDK1 kinase is below 5 µM. The EC50 with PC-3 cells is below 5 µM.

Take `Fc1cccc(Nc2ncc3c(Br)ccc(OC4CCNCC4)c3n2)c1` [Compound 433, 5-bromo-N-(3-fluorophenyl)-8-(piperidin-4-yloxy)quinazolin-2-amine]: the IC50 on PDK1 kinase was below 5 µM. Besides, the EC50 with PC-3 cells is below 5 µM.

For `Fc1ccc(Nc2ncc3c(Br)ccc(OC4CCNCC4)c3n2)cc1` [Compound 434, 5-bromo-N-(4-fluorophenyl)-8-(piperidin-4-yloxy)quinazolin-2-amine], the IC50 at PDK1 kinase is below 5 µM. Moreover, in the assay with PC-3 cells, the EC50 was below 5 µM.

Take `Brc1ccc(OC2CCNCC2)c2nc(Nc3ccc(N4CCOCC4)cc3)ncc12` [Compound 435, 5-bromo-N-(4-morpholinophenyl)-8-(piperidin-4-yloxy)quinazolin-2-amine]: the IC50 at PDK1 kinase is below 5 µM. The EC50 in the assay on PC-3 cells lay within 5 to 10 µM.

For `CN1CCN(c2ccc(-c3cccc4cnc(Nc5ccc(C(F)(F)F)nc5)nc34)cn2)CC1` [Compound 436, 8-(6-(4-methylpiperazin-1-yl)pyridin-3-yl)-N-(6-(trifluoromethyl)pyridine-3-yl)quinazolin-2-amine], the IC50 at PDK1 kinase is below 5 µM. Moreover, the EC50 in the assay on PC-3 cells is below 5 µM.

Regarding `O=S(=O)(c1cccc(Nc2ncc3c(Br)ccc(OC4CCNCC4)c3n2)c1)N1CCOCC1` [Compound 437, 5-bromo-N-(3-(morpholinosulfonyl)phenyl)-8-(piperidin-4-yloxy)quinazolin-2-amine], the half-maximal inhibitory concentration (IC50) on PDK1 kinase is 5 to 10 µM. For the same compound, the EC50 in the assay on PC-3 cells is below 5 µM.

As to `O=C(c1ccc(Nc2ncc3c(Br)ccc(OC4CCNCC4)c3n2)cc1)N1CCOCC1` [Compound 438, (4-(5-bromo-8-(piperidin-4-yloxy)quinazolin-2-ylamino)phenyl)(morpholino)methanone], at PDK1 kinase, the IC50 was below 5 µM. The EC50 in the assay on PC-3 cells was below 5 µM.

`CC(C)NC(=O)c1ccc(Nc2ncc3cccc(OC4CCNCC4)c3n2)cc1F` [Compound 439, 2-fluoro-N-isopropyl-4-(8-(piperidin-4-yloxy)quinazolin-2-ylamino)benzamide]: on PDK1 kinase, the IC50 was below 5 µM. In the assay with PC-3 cells, the EC50 is below 5 µM.

For the compound `O=C(NC1CCOCC1)c1ccc(Nc2ncc3cccc(OC4CCNCC4)c3n2)cc1F` [Compound 440, 2-fluoro-4-(8-(piperidin-4-yloxy)quinazolin-2-ylamino)-N-(tetrahydro-2H-pyran-4-yl)benzamide], the IC50 at PDK1 kinase is below 5 µM. In addition, the EC50 with PC-3 cells was below 5 µM.

In the case of `O=C(O)c1ccc(Nc2ncc3cccc(OC4CCNCC4)c3n2)cc1F` [Compound 441, 2-fluoro-4-(8-(piperidin-4-yloxy)quinazolin-2-ylamino)benzoic acid], the half-maximal inhibitory concentration (IC50) at PDK1 kinase was below 5 µM. The EC50 in the assay on PC-3 cells is 5 to 10 µM.

`CC(=O)Nc1cccc(Nc2ncc3cccc(-c4ccc(N5CCN(C)CC5)nc4)c3n2)c1` [Compound 442, N-(3-(8-(6-(4-methylpiperazin-1-yl)pyridin-3-yl)quinazolin-2-ylamino)phenyl)acetamide]: the IC50 at PDK1 kinase is below 5 µM. In addition, in the assay on PC-3 cells, the EC50 was below 5 µM.

Turning to `CN1CCN(c2ccc(-c3cccc4cnc(Nc5cccc(-c6cnco6)c5)nc34)cn2)CC1` [Compound 443, 8-(6-(4-methylpiperazin-1-yl)pyridin-3-yl)-N-(3-(oxazol-5-yl)phenyl)quinazolin-2-amine], the IC50 on PDK1 kinase is below 5 µM. Besides, the EC50 in the assay with PC-3 cells is below 5 µM.

For `O=C(NC1CC1)c1ccc(Nc2ncc3cccc(OC4CCNCC4)c3n2)cc1F` [Compound 444, N-cyclopropyl-2-fluoro-4-(8-(piperidin-4-yloxy)quinazolin-2-ylamino)benzamide], the IC50 on PDK1 kinase is below 5 µM. For the same compound, the EC50 with PC-3 cells is below 5 µM.

Take `COCCNC(=O)c1ccc(Nc2ncc3cccc(OC4CCNCC4)c3n2)cc1F` [Compound 445, 2-fluoro-N-(2-methoxyethyl)-4-(8-(piperidin-4-yloxy)quinazolin-2-ylamino)benzamide]: on PDK1 kinase, the IC50 is below 5 µM. The EC50 in the assay on PC-3 cells is below 5 µM.

In the case of `CN(C)C(=O)c1ccc(Nc2ncc3cccc(OC4CCNCC4)c3n2)cc1F` [Compound 446, 2-fluoro-N,N-dimethyl-4-(8-(piperidin-4-yloxy)quinazolin-2-ylamino)benzamide], the IC50 on PDK1 kinase was below 5 µM. The EC50 with PC-3 cells was below 5 µM.

Consider `O=C(c1ccc(Nc2ncc3cccc(OC4CCNCC4)c3n2)cc1F)N1CCOCC1` [Compound 447, (2-fluoro-4-(8-(piperidin-4-yloxy)quinazolin-2-ylamino)phenyl)(morpholino)methanone], for which, at PDK1 kinase, the IC50 is below 5 µM. Besides, the EC50 with PC-3 cells is below 5 µM.

As for `NC(=O)c1cc(Nc2ncc3cccc(OC4CCNCC4)c3n2)ccc1N1CCOCC1` [Compound 448, 2-morpholino-5-(8-(piperidin-4-yloxy)quinazolin-2-ylamino)benzamide], the IC50 on PDK1 kinase is below 5 µM. The EC50 in the assay with PC-3 cells was 5 to 10 µM.

`O=C(O)c1cc(Nc2ncc3cccc(OC4CCNCC4)c3n2)ccc1N1CCOCC1` [Compound 449, 2-morpholino-5-(8-(piperidin-4-yloxy)quinazolin-2-ylamino)benzoic acid]: the IC50 at PDK1 kinase was below 5 µM. Besides, in the assay with PC-3 cells, the EC50 lay within 5 to 10 µM.

For `O=C(O)c1cc(Nc2ncc3cccc(OC4CCNCC4)c3n2)cc(C(F)(F)F)c1` [Compound 450], the IC50 at PDK1 kinase is below 5 µM. Further, in the assay on PC-3 cells, the EC50 lay in the range of 5 to 10 µM.

Consider `CCOC(=O)c1cc(F)cc(Nc2ncc3cccc(OC4CCNCC4)c3n2)c1` [Compound 451, ethyl 3-fluoro-5-(8-(piperidin-4-yloxy)quinazolin-2-ylamino)benzoate], for which the IC50 on PDK1 kinase was below 5 µM. Also, in the assay with PC-3 cells, the EC50 was below 5 µM.

Turning to `FC(F)(F)c1cc(Br)cc(Nc2ncc3cccc(OC4CCNCC4)c3n2)c1` [Compound 452, N-(3-bromo-5-(trifluoromethyl)phenyl)-8-(piperidin-4-yloxy)quinazolin-2-amine], the IC50 on PDK1 kinase was below 5 µM. The EC50 with PC-3 cells was below 5 µM.

For `CC(C)NC(=O)c1cc(Nc2ncc3cccc(OC4CCNCC4)c3n2)cc(C(F)(F)F)c1` [Compound 453, N-isopropyl-3-(8-(piperidin-4-yloxy)quinazolin-2-ylamino)-5-(trifluoromethyl)benzamide], the 50% inhibitory concentration (IC50) on PDK1 kinase was below 5 µM. The EC50 in the assay with PC-3 cells was below 5 µM.

As to `O=C(c1cc(Nc2ncc3cccc(OC4CCNCC4)c3n2)cc(C(F)(F)F)c1)N1CCOCC1` [Compound 454, morpholino(3-(8-(piperidin-4-yloxy)quinazolin-2-ylamino)-5-(trifluoromethyl)phenyl)methanone], at PDK1 kinase, the concentration for half-maximal inhibition (IC50) was below 5 µM. The EC50 with PC-3 cells is 5 to 10 µM.

Turning to `CN(C)C(=O)c1cc(Nc2ncc3cccc(OC4CCNCC4)c3n2)ccc1N1CCOCC1` [Compound 455, N,N-dimethyl-2-morpholino-5-(8-(piperidin-4-yloxy)quinazolin-2-ylamino)benzamide], the IC50 on PDK1 kinase was below 5 µM. Besides, in the assay with PC-3 cells, the EC50 lay within 5 to 10 µM.

`O=C(NC1CC1)c1cc(Nc2ncc3cccc(OC4CCNCC4)c3n2)ccc1N1CCOCC1` [Compound 456, N-cyclopropyl-2-morpholino-5-(8-(piperidin-4-yloxy)quinazolin-2-ylamino)benzamide]: the IC50 on PDK1 kinase is below 5 µM. The EC50 in the assay with PC-3 cells was below 5 µM.

On to `Fc1cc(Nc2ncc3cccc(OC4CCNCC4)c3n2)ccc1N1CCOCC1` [Compound 457, N-(3-fluoro-4-morpholinophenyl)-8-(piperidin-4-yloxy)quinazolin-2-amine], for which the IC50 on PDK1 kinase is below 5 µM. Also, the EC50 in the assay with PC-3 cells is below 5 µM.

Regarding `c1cc(OC2CCNCC2)c2nc(Nc3ccc(-c4cnco4)cc3)ncc2c1` [Compound 458, N-(4-(oxazol-5-yl)phenyl)-8-(piperidin-4-yloxy)quinazolin-2-amine], the IC50 on PDK1 kinase was below 5 µM. For the same compound, the EC50 with PC-3 cells was below 5 µM.

With `CN1CCN(c2ccc(-c3cccc4cnc(Nc5ccc(N6CCOCC6)c(F)c5)nc34)cc2)CC1` [Compound 459, N-(3-fluoro-4-morpholinophenyl)-8-(4-(4-methylpiperazin-1-yl)phenyl)quinazolin-2-amine], the IC50 at PDK1 kinase was below 5 µM. The EC50 in the assay on PC-3 cells is below 5 µM.

As for `Fc1cc(Nc2ncc3cccc(C4=CCNCC4)c3n2)ccc1N1CCOCC1` [Compound 460, N-(3-fluoro-4-morpholinophenyl)-8-(1,2,3,6-tetrahydropyridin-4-yl)quinazolin-2-amine], the IC50 at PDK1 kinase was below 5 µM. For the same compound, the EC50 in the assay with PC-3 cells is below 5 µM.
